Patent publication US9963461B2, “Phillygenin ibuprofen ester, preparation method therefor, and application thereof” (priority 2014, dated 2018)
Marks after values point to notes of the source that are not given here.

Key:
influenza virus = experiment: Impact of the drugs on the virus-induced cytopathy (MTT); type: cell-based; settings: influenza virus 100 TCID50, Vero cells, about the maximal non-cytotoxic concentration, 72 hours
Enterovirus EV71 = experiment: as above; type: cell-based; settings: EV71 100 TCID50, Vero cells, about the maximal non-cytotoxic concentration, 72 hours
[1] = system: beer yeast induced rat fever; experiment: Beer yeast induced rat fever; type: in vivo, Wistar rats; settings: 300 mg/kg
Method: Male Wistar rats were selected, weighing 180-200 g. Before the test, WSC-411P portable digital thermometer was used to measure the normal rectal temperature twice (with certain interval for each time), and the average value of the two measurements was taken as the normal body temperature of the rat. Then 70 rats with the body temperature between 36.5° C. and 38° C. were chosen to be randomly divided into 7 groups by weight: the model (0.5% carboxymethylcellulose) group, the 2.5, 5, and 10 mg/kg phillygenin ibuprofen ester groups, the positive drug paracetamol (100 mg/kg) group, the ibuprofen group (i.e. prodrug control group, 300 mg/kg), the phillygenin group (100 mg/kg), with 10 rats for each group. Each group of rats were subjected to back subcutaneous injection with 10% fresh beer yeast suspension of 10 ml/kg to induce heat. After administration of 10% fresh beer yeast suspension for 6.0 h, phillygenin ibuprofen ester and paracetamol were both subjected to intragastric administration, and the model group was intragastrically administrated with equal volume of 0.5% carboxymethylcellulose. Rectal temperature was measured after 1 h, 2 h, 3 h and 4 h of the administration respectively. Changes in the body temperature were observed and difference between the groups was compared by inter-group t test processing through antipyretic percentage.

[2] = system: sweat secretion of rat paw part; experiment: Sweat secretion of rat paw part (coloring method); type: in vivo, Wistar rats; settings: 300.0 mg/kg intragastric; for Animal number of sweat points of level +: + = sweat area below about 10%; for Animal number of sweat points of level ++: ++ = sweat area about 11-40%; for Animal number of sweat points of level +++: +++ = sweat area about 41-70%; for Animal number of sweat points of level ++++: ++++ = sweat area over 71%; for Animal number of sweat points of level −: − = no sweat point
Excerpt: This test was designed to observe the change of sweat secretion based on the mechanism that sweat gland is distributed on the rat paw pads, and iodine and starch can have purple reaction when encountered with sweat. In the test, 350 Wistar rats were selected, with equal male and female number, weighing 120-150 g. […] The rats were placed in a self-made rat fixation bag, with the double hind limbs exposed. The dirts on the right paw was gently scrubbed clean with the cotton swab dipped with anhydrous ethanol. Besides that subcutaneous injection was used for the pilocarpine solution, intragastric administration was used for all the other groups. […] When the test was complete, statistical process was carried out according to the rank-sum test with two-sample comparison, in order to compare the difference between the groups.

[3] = system: rat toe swelling induced by carrageenan; experiment: Rat toe swelling induced by carrageenan; type: in vivo, Wistar rats; settings: 300 mg/kg sublingual intravenous injection
Method: The test groups were administered by sublingual intravenous injection. Before the test, capillary magnification measurement method was used to measure the normal volume of the right hind foot of the rats in each group. To avoid errors, the measurement location was fixed and the operation was made by one person both before and after the administration. The average value of the two measurements was taken as the normal volume of the right hind foot of the rats before administration. […] The difference between the groups was compared by inter-group t test processing through the difference percentage (swelling ratio) of the paw volume before and after the induced rat inflammation.

[4] = system: coxsackie virus B3 (CVB3); experiment: Impact of the drugs on the virus-induced cytopathy (MTT); type: cell-based; settings: CVB3 100 TCID50, Vero cells, about the maximal non-cytotoxic concentration, 72 hours
parainfluenza virus = experiment: as above; type: cell-based; settings: parainfluenza virus 100 TCID50, Vero cells, about the maximal non-cytotoxic concentration, 72 hours
[5] = system: Herpes Simplex Virus type I (HSV-1); experiment: as above; type: cell-based; settings: HSV-I 100 TCID50, Vero cells, about the maximal non-cytotoxic concentration, 72 hours
[6] = system: Coxsackie virus A16 (CoxA16); experiment: as above; type: cell-based; settings: CoxA16 100 TCID50, Vero cells, about the maximal non-cytotoxic concentration, 72 hours
[7] = after coating B liquid for 1 minute
[8] = after coating B liquid for 5 minutes
[9] = after coating B liquid for 10 minutes
[10] = after coating B liquid for 15 minutes (Table 2-4)
[11] = after coating B liquid for 15 minutes (Table 2-5)

In the case of `CC(C)Cc1ccc(C(C)C(=O)O)cc1` (stereo not shown) [Ibuprofen], the “antiviral effective rate (ER %)” value (influenza virus) is reported as 75.35** %, the “antiviral effective rate (ER %)” value (Enterovirus EV71) is reported as 75.86** % and the “Body temperature (° C.)” value ([1]; 1 h after administration) is reported as 39.21 ± 0.11 °C. The “antipyretic percentage (%)” value ([1]; 1 h after administration) was −1.05 ± 0.54 %, the “Body temperature (° C.)” value ([1]; 2 h after administration) was 38.92 ± 0.35 °C and the “antipyretic percentage (%)” value ([1]; 2 h after administration) was −1.7 ± 0.77 %. The “Body temperature (° C.)” value ([1]; 3 h after administration) was 38.71 ± 0.20 °C, the “antipyretic percentage (%)” value ([1]; 3 h after administration) was −2.32 ± 1.41 % and the “Body temperature (° C.)” value ([1]; 4 h after administration) was 38.49 ± 0.51 °C. For the same molecule, the “antipyretic percentage (%)” value ([1]; 4 h after administration) was −2.88 ± 1.50 %, the “Animal number of sweat points of level +” value [2, 7] was 1 and the “Animal number of sweat points of level ++” value [2, 7] was 3. The “Animal number of sweat points of level +++” value [2, 7] was 1, the “Animal number of sweat points of level ++++” value (from here on “Animal number … of level ++++”) [2, 7] was 5 and the “Animal number of sweat points of level −” value [2, 7] was 0. For the same molecule, the “Animal number of sweat points of level +” value [2, 8] was 2, the “Animal number of sweat points of level ++” value [2, 8] was 1 and the “Animal number of sweat points of level +++” value [2, 8] was 2. The “Animal number … of level ++++” value [2, 8] was 5, the “Animal number of sweat points of level −” value [2, 8] was 0 and the “Animal number of sweat points of level +” value [2, 9] was 1. For the same molecule, the “Animal number of sweat points of level ++” value [2, 9] was 2, the “Animal number of sweat points of level +++” value [2, 9] was 2 and the “Animal number … of level ++++” value [2, 9] was 5. The “Animal number of sweat points of level −” value [2, 9] was 0, the “Animal number of sweat points of level +” value [2, 10] was 1 and the “Animal number of sweat points of level ++” value [2, 10] was 2. The “Animal number of sweat points of level +++” value [2, 10] was 2, the “Animal number … of level ++++” value [2, 10] was 5 and the “Animal number of sweat points of level −” value [2, 10] was 0. The “Animal number of sweat points of level +” value [2, 11] was 1, the “Animal number of sweat points of level ++” value [2, 11] was 2 and the “Animal number of sweat points of level +++” value [2, 11] was 2. The “Animal number … of level ++++” value [2, 11] was 5, the “Animal number of sweat points of level −” value [2, 11] was 0 and the “Swelling ratio (%)” value ([3]; 30 min) was 0.110 ± 0.119 %. The “Swelling ratio (%)” value ([3]; 60 min) was 0.151 ± 0.172 %, the “Swelling ratio (%)” value ([3]; 120 min) was 0.210 ± 0.178 % and the “Swelling ratio (%)” value ([3]; 180 min) was 0.330 ± 0.337 %. For the same molecule, the “Swelling ratio (%)” value ([3]; 240 min) was 0.4600 ± 0.289 %, the “Swelling ratio (%)” value ([3]; 300 min) was 0.681 ± 0.369% and the “Swelling ratio (%)” value ([3]; 360 min) was 0.623 ± 0.338 %. The “antiviral effective rate (ER %)” value [4] was 50.89%, the “antiviral effective rate (ER %)” value (parainfluenza virus) was 80.72** % and the “antiviral effective rate (ER %)” value [5] was 84.30** %. For the same molecule, the “antiviral effective rate (ER %)” value [6] was 50.04%.
